What was measured:
Format in all cases: in vivo
[1] = system: blackgrass (Alopecurus myosuroides); assay: Test B postemergence plant response
Outline: (§1)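 Weeds grown in loam soil/sand pots were sprayed postemergence at 2 to 10 cm height, one- to two-leaf stage. After approximately 10 days in greenhouse, injury was rated visually against untreated controls on a 0 (no effect) to 100 (complete control) scale; dash means no test result.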

[2] = system: galium (catchweed bedstraw, Galium aparine); assay: Test B postemergence plant response
Outline: as §1

rice (Oryza sativa) = assay: Test C flooded paddy test plant response; conditions: Flood, 250 g ai/ha; scale of 0 to 100 where 0 is no effect and 100 is complete control; 13 to 15 days
Outline: (§2)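 Plants grown to the 2-leaf stage; pots flooded to 3 cm above soil, test compounds applied directly to paddy water, depth maintained throughout. Greenhouse for 13 to 15 days, then visual rating versus controls on a 0–100 scale (0 no effect, 100 complete control).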

[3] = system: small-flower umbrella sedge (Cyperus difformis); assay: Test C flooded paddy test plant response; conditions: Flood, 250 g ai/ha; scale of 0 to 100 where 0 is no effect and 100 is complete control; 13 to 15 days
Outline: as §2

[4] = system: barnyardgrass (Echinochloa crus-galli); assay: Test C flooded paddy test plant response; conditions: Flood, 250 g ai/ha; scale of 0 to 100 where 0 is no effect and 100 is complete control; 13 to 15 days
Outline: as §2

[5] = system: ducksalad (Heteranthera limosa); assay: Test C flooded paddy test plant response; conditions: Flood, 250 g ai/ha; scale of 0 to 100 where 0 is no effect and 100 is complete control; 13 to 15 days
Outline: as §2

[6] = system: Italian ryegrass (Lolium multiflorum); assay: Test B pre-/postemergence plant response
Outline: (§3)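 Seeds in loam–sand blend given preemergence soil spray; separately, plants at one- to two-leaf stage (2–10 cm) sprayed postemergence, compounds in non-phytotoxic solvent with surfactant. Injury rated visually versus untreated controls after ~10 days in greenhouse, 0 (no effect) to 100 (complete control).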

[7] = system: ragweed (common ragweed, Ambrosia elatior); assay: Test B pre-/postemergence plant response
Outline: as §3

[8] = system: pigweed (Amaranthus retroflexus); assay: Test B pre-/postemergence plant response
Outline: as §3

[9] = system: barnyardgrass (Echinochloa crus-galli); assay: Test B pre-/postemergence plant response
Outline: as §3

kochia (Kochia scoparia) = assay: Test B pre-/postemergence plant response
Outline: as §3

corn (Zea mays) = assay: Test B pre-/postemergence plant response
Outline: as §3

[10] = system: giant foxtail (Setaria faberii); assay: Test B pre-/postemergence plant response
Outline: as §3

[11] = system: wheat (Triticum aestivum); assay: Test B pre-/postemergence plant response
Outline: as §3

[12] = 125 g ai/ha, postemergence, 0 to 100 scale, 0 no effect, 100 complete control
[13] = Postemergence, 500 g ai/ha, 0 to 100 scale (0 no effect, 100 complete control)
[14] = Preemergence, 125 g ai/ha, 0 to 100 scale (0 no effect, 100 complete control)
[15] = Preemergence, 500 g ai/ha, 0 to 100 scale where 0 is no effect and 100 is complete control
[16] = Postemergence, 1000 g ai/ha, 0 to 100 scale (0 no effect, 100 complete control)
[17] = Preemergence, 1000 g ai/ha, 0 to 100 scale (0 no effect, 100 complete control)
[18] = Postemergence, 31 g ai/ha, 0 to 100 scale (0 no effect, 100 complete control)
[19] = 31 g ai/ha, Preemergence, 0 to 100 scale where 0 is no effect and 100 is complete control

Row | SMILES | Plant response rating, Blackgrass [1, 12] | Plant response rating, Galium [2, 12] | Rice plant response rating (rice (Oryza sativa)) | Sedge, Umbrella plant response rating [3] | Barnyardgrass plant response rating [4] | Ducksalad plant response rating [5] | Plant response rating, Ryegrass, Italian [6, 12] | Ryegrass, Italian plant response rating [6, 14] | Plant response rating, Ragweed [7, 12] | Ragweed plant response rating [7, 14] | Plant response rating, Pigweed [8, 12] | Pigweed plant response rating [8, 14] | Plant response rating, Barnyardgrass [9, 12] | Barnyardgrass plant response rating [9, 14] | Plant response rating, Kochia (kochia (Kochia scoparia); [12]) | Kochia plant response rating (kochia (Kochia scoparia); [14]) | Plant response rating, Corn (corn (Zea mays); [12]) | Plant response rating, Foxtail, Giant [10, 12] | Foxtail, Giant plant response rating [10, 14] | Plant response rating, Wheat [11, 12] | further results
1 | Clc1cnc(Oc2ccccc2-c2ccc(Br)s2)nc1 [Compound 181] | 0 | 10 | 0 | 0 | 0 | 0 | 0 | 0 | 10 | 0 | 50 | 10 | 10 | 0 | 30 | 0 | 10 | 0 | 0 | 0 | Plant response rating, Blackgrass [1, 13]: 10; Plant response rating, Galium [2, 13]: 50; Plant response rating, Ryegrass, Italian [6, 13]: 0; Plant response rating, Ryegrass, Italian [6, 15]: 0; Plant response rating, Ragweed [7, 13]: 10; Plant response rating, Ragweed [7, 15]: 0; Plant response rating, Pigweed [8, 13]: 90; Plant response rating, Pigweed [8, 15]: 80; Plant response rating, Barnyardgrass [9, 13]: 20; Plant response rating, Barnyardgrass [9, 15]: 10; Plant response rating, Kochia (kochia (Kochia scoparia); [13]): 50; Plant response rating, Kochia (kochia (Kochia scoparia); [15]): 0; Plant response rating, Corn (corn (Zea mays); [13]): 10; Plant response rating, Foxtail, Giant [10, 13]: 20; Plant response rating, Foxtail, Giant [10, 15]: 40; Plant response rating, Wheat [11, 13]: 0
2 | Clc1cnc(Oc2ccccc2-c2cccs2)nc1 [Compound 182] | 0 | 30 | 0 | 0 | 0 | 0 | 0 | 0 | 0 | 0 | 40 | 0 | 0 | 0 | 30 | 0 | 10 | 0 | 0 | 0 | Plant response rating, Blackgrass [1, 13]: 10; Plant response rating, Galium [2, 13]: 50; Plant response rating, Ryegrass, Italian [6, 13]: 0; Plant response rating, Ryegrass, Italian [6, 15]: 10; Plant response rating, Ragweed [7, 13]: 10; Plant response rating, Ragweed [7, 15]: 10; Plant response rating, Pigweed [8, 13]: 80; Plant response rating, Pigweed [8, 15]: 40; Plant response rating, Barnyardgrass [9, 13]: 10; Plant response rating, Barnyardgrass [9, 15]: 20; Plant response rating, Kochia (kochia (Kochia scoparia); [13]): 80; Plant response rating, Kochia (kochia (Kochia scoparia); [15]): 30; Plant response rating, Corn (corn (Zea mays); [13]): 20; Plant response rating, Foxtail, Giant [10, 13]: 50; Plant response rating, Foxtail, Giant [10, 15]: 40; Plant response rating, Wheat [11, 13]: 0
3 | FC(F)c1cc(-c2ccccc2Oc2ncc(Cl)cn2)ncn1 [Compound 184] | 10 | 70 | 0 | 0 | 0 | 0 | 0 | 0 | 20 | 0 | 90 | 80 | 0 | 10 | 70 | 20 | 10 | 10 | 20 | 0 | Plant response rating, Blackgrass [1, 13]: 60; Plant response rating, Galium [2, 13]: 100; Plant response rating, Ryegrass, Italian [6, 13]: 20; Plant response rating, Ryegrass, Italian [6, 15]: 10; Plant response rating, Ragweed [7, 13]: 40; Plant response rating, Ragweed [7, 15]: 50; Plant response rating, Pigweed [8, 13]: 100; Plant response rating, Pigweed [8, 15]: 100; Plant response rating, Barnyardgrass [9, 13]: 50; Plant response rating, Barnyardgrass [9, 15]: 90; Plant response rating, Kochia (kochia (Kochia scoparia); [13]): 100; Plant response rating, Kochia (kochia (Kochia scoparia); [15]): 100; Plant response rating, Corn (corn (Zea mays); [13]): 20; Plant response rating, Foxtail, Giant [10, 13]: 70; Plant response rating, Foxtail, Giant [10, 15]: 90; Plant response rating, Wheat [11, 13]: 10
4 | Clc1cnc(Oc2ccccc2-c2ccc(Cl)nn2)nc1 [Compound 186] |  |  | 0 | 0 | 0 | 0 |  |  |  |  |  |  |  |  |  |  |  |  |  |  | Plant response rating, Blackgrass [1, 16]: 20; Plant response rating, Galium [2, 16]: 20; Plant response rating, Ryegrass, Italian [6, 16]: 0; Plant response rating, Ryegrass, Italian [6, 17]: 0; Plant response rating, Ragweed [7, 16]: 50; Plant response rating, Ragweed [7, 17]: 70; Plant response rating, Pigweed [8, 16]: 20; Plant response rating, Pigweed [8, 17]: 100; Plant response rating, Barnyardgrass [9, 16]: 0; Plant response rating, Barnyardgrass [9, 17]: 20; Plant response rating, Kochia (kochia (Kochia scoparia); [16]): 30; Plant response rating, Kochia (kochia (Kochia scoparia); [17]): 100; Plant response rating, Corn (corn (Zea mays); [16]): 0; Plant response rating, Foxtail, Giant [10, 16]: 30; Plant response rating, Foxtail, Giant [10, 17]: 100; Plant response rating, Wheat [11, 16]: 0
5 | Cc1ccnc(-c2ccccc2Oc2ncc(Cl)cn2)c1 [Compound 187] | 0 | 0 | 0 | 0 | 0 | 50 | 0 | 0 | 0 | 0 | 0 | 0 | 0 | 0 | 0 | 0 | 0 | 0 | 0 | 0 | Plant response rating, Blackgrass [1, 18]: 0; Plant response rating, Galium [2, 18]: 0; Plant response rating, Ryegrass, Italian [6, 19]: 0; Plant response rating, Ryegrass, Italian [6, 18]: 0; Plant response rating, Ragweed [7, 19]: 0; Plant response rating, Ragweed [7, 18]: 0; Plant response rating, Pigweed [8, 19]: 0; Plant response rating, Pigweed [8, 18]: 0; Plant response rating, Barnyardgrass [9, 19]: 0; Plant response rating, Barnyardgrass [9, 18]: 0; Plant response rating, Kochia (kochia (Kochia scoparia); [19]): 0; Plant response rating, Kochia (kochia (Kochia scoparia); [18]): 0; Plant response rating, Corn (corn (Zea mays); [18]): 0; Plant response rating, Foxtail, Giant [10, 19]: 0; Plant response rating, Foxtail, Giant [10, 18]: 0; Plant response rating, Wheat [11, 18]: 0
6 | N#Cc1ccnc(-c2ccccc2Oc2ncc(Cl)cn2)c1 [Compound 188] | 20 | 50 | 0 | 0 | 0 | 30 | 0 | 0 | 20 | 0 | 60 | 100 | 20 | 20 | 90 | 30 | 30 | 20 | 40 | 20 | Plant response rating, Blackgrass [1, 18]: 0; Plant response rating, Galium [2, 18]: 0; Plant response rating, Ryegrass, Italian [6, 19]: 0; Plant response rating, Ryegrass, Italian [6, 18]: 0; Plant response rating, Ragweed [7, 19]: 0; Plant response rating, Ragweed [7, 18]: 0; Plant response rating, Pigweed [8, 19]: 0; Plant response rating, Pigweed [8, 18]: 0; Plant response rating, Barnyardgrass [9, 19]: 0; Plant response rating, Barnyardgrass [9, 18]: 0; Plant response rating, Kochia (kochia (Kochia scoparia); [19]): 0; Plant response rating, Kochia (kochia (Kochia scoparia); [18]): 0; Plant response rating, Corn (corn (Zea mays); [18]): 0; Plant response rating, Foxtail, Giant [10, 19]: 0; Plant response rating, Foxtail, Giant [10, 18]: 0; Plant response rating, Wheat [11, 18]: 0

Source: patent publication US10131652B2, “Pyrimidinyloxy benzene derivatives as herbicides” (E. I. DU PONT DE NEMOURS AND COMPANY, priority 2014, dated 2018)
